Literature values in patent US20210368800A1, “Quickly, easily, and economically creating and maintaining a low bio-load on surfaces that may be large and/or of complex contour and finish” (priority 2020, published 2021).

Legend:
norovirus = settings: at 50 ppm; electrolytically generated hypochlorous acid

## OCl [hypochlorous acid, Hypochlorous Acid]
norovirus
  time to kill norovirus: less than one
Coronavirus 0C43
  effective in eliminating coronavirus 0C43: more than 99.999%
